The values below come from PMC4621507, “Characterization of 2,4-Diamino-6-oxo-1,6-dihydropyrimidin-5-yl Ureido Based Inhibitors of Trypanosoma brucei FolD and Testing for Antiparasitic Activity” (Journal of Medicinal Chemistry, 2015).

Data set [1] deals with L. major FolD. The arrangement: method as in PMID 22108435, PMID 23050773. The note with it: competitive inhibitor; cited from earlier work.
For data set [2], the target named is Pseudomonas aeruginosa FolD. The arrangement: method as in PMID 22108435, PMID 23050773. Conditions: competitive inhibitor; cited from earlier work.
In data set [3] the target is human FolD. The arrangement: method as in PMID 22108435, PMID 23050773. The note with it: competitive inhibitor; cited from earlier work.
The subject of data set [4] is TbFolD. The data set can be described thus: FolD dehydrogenase enzyme inhibition assay. The note with it: for FolD inhibition IC50 / FolD inhibition Ki: recombinant TbFolD, dehydrogenase activity; for FolD inhibition IC50: 35 μM mTHF, 1 mM NADP+, 27 °C, pH 7.3; for FolD inhibition Ki: data fitted to a competitive model; for increase of the inhibitory potency compared to that of compound 2: TbFolD, from Ki. It counts as biochemical, Trypanosoma brucei. As for the experimental part: The dehydrogenase activity of FolD was measured spectrophotometrically, using a Beckman DU-640 spectrophotometer, following the formation of 5,10-CH=THF from 5,10-CH2-THF. 5,10-CH2-THF dehydrogenase assays were carried out in a 0.5 mL volume at 27 °C and contained 25 mM MOPS, pH 7.3, 30 mM 2-mercaptoethanol, 35 μM mTHF, and 1 mM NADP^+. The Km values of substrate and cofactor having been previously elucidated as approximately 35 and 70 μM. The reaction was initiated by the addition of NADP^+ and incubated for 5 min then stopped by the addition of an equal volume of 1 M HCl and the 5,10-CH=THF produced quantified at 350 nm, using an extinction coefficient of 24.9 mM^–1 cm^–1. The enzyme activity was expressed as μ moles 5,10-CH=THF produced per minute. Enzyme inhibition was measured using the dehydrogenase assay, with stocks of compounds dissolved in DMSO (10 mM). The concentration of compound in the first test was 0–50–100 μM. Data from inhibition assays were fitted to a competitive model by linear regression using Origin (OriginLab Corporation). […]
with 50 mM bicine, 250 mM NaCl, 0.5 mM DTT, 10 % glycerol pH 8.0. The typical yield of protein was approximately 7 mg/L of cell culture. The addition of 10% glycerol in all buffers was required to prevent loss of activity when the samples were flashyfrozen.
The dehydrogenase activity of FolD was measured spectrophotometrically, using a Beckman DUy 640 spectrophotometer, following either the formation of 5,10yCH=THF from 5,10yCH2yTHF (DH activity). 5,10yCH2yTHF dehydrogenase assays were carried out in a 0.5 mL volume at 27 °C and contained 25 mM MOPS, pH 7.3, 30 mM 2ymercaptoethanol 35 µM mTHF, 1 mM NADP+. The reaction was initiated by addition of NADP+ and incubated for 5 minutes then stopped by the addition of an equal volume of 1 M HCl and the 5,10yCH=THF produced quantified at 350 nm, using a extinction coefficient of 24.9 mM−1 cm−1. DH activity was expressed as µ moles 5,10y CH=THF produced per minute. Enzyme inhibition was measured using the dehydrogenase assay, with stocks of compounds dissolved in DMSO (10 mM). The concentration of compound in the first test was 0y50y100 µM. Data from inhibition assays were fitted to competitive model by linear […]
The bloodstreamyform T. brucei brucei strain 427 was grown in HMIy9 medium – 17.66 mg/mL IMDM (Gibco), 3.020 mg/mL sodium bicarbonate (SigmayAldrich), 0.136 mg/mL hypoxanthine (SigmayAldrich), 0.039 mg/mL thymidine (SigmayAldrich) and 0.028 mg/mL bathocuproine sulfonic acid (SigmayAldrich) y supplemented with 10% heatyinactivated fetal bovine serum (FBS) (BioWhittaker), 1.5 mM Lycysteine hydrochloride monohydrate (Merck), 0.2 mM βy mercaptoethanol (SigmayAldrich), 100 U/mL penicillin and 100 U/mL streptomycin (BioWhittaker) at 37 °C under a humidified 5% CO2 atmosphere. Cultures were grown in T25 or T75 vented cap culture flasks (Sarstedt) and subycultured every 2y3 days by 100 to 1000yfold dilution, respectively.
Parasites were counted directly using a Neubauer chamber (Marienfeld) and diluted appropriately in […]
In vitro growth inhibition assays

Data set [5] in a line: Solubility in organic solvents (crystallization trials). In kind it is physicochemical. Conditions: room temperature, with the exception of DMSO. From the text: We therefore tried to grow crystals from DMSO (in different conditions) and from mixtures of DMSO/CH3CN. Eventually, crystallization by slow evaporation (16 days) of a solution of 3 in reagent-grade DMSO (Sigma-Aldrich) at room temperature produced small plates suitable for the determination of the molecular connectivity. After testing several samples, a specimen (0.25 × 0.20 × 0.05 mm^3) grown at the liquor/air interface was selected for the crystallographic analysis. The specimen manifested a significant pleochroism (colorless to violet) under polarized light. It was mounted on the top of a glass capillary fiber in dense perfluorinated oil. The X-ray data collection was performed at room temperature on a 3-circle Bruker SMART APEX goniometer equipped with a CCD APEX-II detector, using graphite-monochromated Mo Kα radiation (λ = 0.71073 Å). A total of 26180 reflections (8144 unique) were recorded up to (sin ϑ/λ)MAX = 0.5017 Å^–1. A high exposure time (120 s/frame) was employed due to the small dimensions of the sample and its very low scattering power.

The test system of data set [6] is THP1 differentiated macrophages. The data set can be described thus: Cytotoxicity, colorimetric MTT assay. The note with it: human THP1 differentiated macrophages, 72 h, read-out: THP1 in vitro growth inhibition IC50. In kind it is cell-based. The protocol:
The cytotoxicity of the compounds under study was assessed by a colorimetric MTT assay.[26],[27] THP1 differentiated macrophages were seeded at a density of 10^5 cells/well in 96-well plates and allowed to adhere overnight. Cells were incubated with the compound concentration range for 72 h at 37 °C. At the end of the incubation period, 200 μL of 0.5 mg/mL MTT reagent (thiazolyl blue tetrazolium bromide, Sigma) solution was added to each well. The plates were further incubated for 4 h at 37 °C in the dark. The culture medium was subsequently discarded, and 200 μL of isopropanol was added to dissolve the dark-blue formazan crystals. Cell viability was quantified spectrophotometrically by measuring the absorbance of the formazan product at wavelength 570 nm and the background at 660 nm with a microplate reader (Synergy 2, Biotek, USA). The data are expressed as the percentages of viable cells compared to the survival of a control group (untreated cells). […]
additional 4 h and then the fluorescence read in a microplate reader (Sinergy 2, BioTek) using an […]
calculated by linear regression.
The cytotoxicity of the compounds under study was assessed by a colorimetric MTT assay. […]
added to dissolve the darkyblue formazan crystals. Cell viability was quantified
spectrophotometrically by measuring the absorbance of the formazan product at the wavelength of […]
A general note: Tetrazolium assays rely on reduction of a dye to a coloured formazan, in cell work by metabolically active cells.

The target of data set [7] is Trypanosoma brucei N5,N10-methylenetetrahydrofolate dehydrogenase/cyclohydrolase (FolD) (Trypanosoma brucei (Lister 927 strain)). The data set can be described thus: SEC; size exclusion chromatography (gel filtration) of recombinant TbFolD in solution; conditions not given in the main text. In general terms: In gel filtration, larger molecules generally elute earlier.

Values joined by “and” are separate entries in the source; they are usually repeats but may differ in a detail not shown here. Identical values can stand only once.

On to `Nc1nc2c(c(=O)[nH]1)N1C(=O)N(c3ccc(C(=O)NC(CCC(=O)O)C(=O)O)cc3)CC1CN2` (stereo not shown) [Compound 21, reference compound], for which, in data set [1], the “Ki L. major FolD” value is on record as 105 nM. In addition, the “Ki Pseudomonas aeruginosa FolD” value in data set [2] is 30 nM. Further, the “Ki human FolD” value in data set [3] was 29 nM. Moreover, in data set [4], the “FolD inhibition IC50” value came to 20000 ± 1200 nM; the “FolD inhibition Ki” value was 8500 nM and 8500 ± 500 nM.

`Nc1nc(N)c(NC(=O)Nc2ccc(C(=O)N[C@@H](CCC(=O)O)C(=O)O)cc2)c(=O)[nH]1` [Compound 2, (S)-2-(4-(3-(2,4-Diamino-6-oxo-1,6-dihydropyrimidin-5-yl)ureido)benzamido)pentanedioic Acid]: in data set [4], the “FolD inhibition IC50” value is 2200 nM and 2200 ± 500 nM; the “FolD inhibition Ki” value was 1100 nM and 1100 ± 800 nM.

Regarding `Nc1nc(N)c(NC(=O)Nc2ccc(C(=O)NCCCC(=O)O)cc2)c(=O)[nH]1` [Compound 20, 4-(4-(3-(2,4-Diamino-6-hydroxypyrimidin-5-yl)ureido)benzamido)butanoic Acid], in data set [4], the “FolD inhibition IC50” value amounted to 213000 ± 18000 nM and the “FolD inhibition Ki” value turned out to be 168000 ± 8500 nM.

With `CCOC(=O)c1ccc(NC(=O)Nc2c(N)nc(N)[nH]c2=O)cc1` [Compound 3, Ethyl 4-(3-(2,4-diamino-6-oxo-1,6-dihydropyrimidin-5-yl)ureido)benzoate], the “solubility in most organic solvents” value in data set [5] is on record as “poorly soluble”.

In the case of `C[C@H](NC(=O)c1ccc(NC(=O)Nc2c(N)nc(N)[nH]c2=O)cc1)C(=O)O` [Compound 17, (S)-2-(4-(3-(2,4-Diamino-6-hydroxypyrimidin-5-yl)ureido)benzamido)propanoic Acid], in data set [4], the “FolD inhibition IC50” value worked out at 6300 ± 800 nM and the “FolD inhibition Ki” value amounted to 3200 ± 300 nM.

With `Nc1nc(N)c(NC(=O)Nc2ccc(C(=O)N[C@@H](Cc3ccccc3)C(=O)O)cc2)c(=O)[nH]1` [Compound 18, (S)-2-(4-(3-(2,4-Diamino-6-hydroxypyrimidin-5-yl)ureido)benzamido)-3-phenylpropanoic Acid], in data set [4], the “increase of the inhibitory potency compared to that of compound 2” value is listed as 2 fold; the “FolD inhibition IC50” value was determined as 1100 ± 250 nM; the “FolD inhibition Ki” value was 540 nM and 540 ± 80 nM.

For the compound “(S)-2-(4-(3-(2,4-diamino-6-hydroxypyrimidin-5-yl)ureido)benzamido)hexanedioic Acid [Compound 16]”, in data set [6], the 50% inhibitory concentration (IC50) (in general, the point on the concentration scale where inhibition reaches its midpoint) came to 90000 ± 16000 nM. In data set [4], the “increase of the inhibitory potency compared to that of compound 2” value is listed as 2 fold; the “FolD inhibition IC50” value was 1000 ± 300 nM; the “FolD inhibition Ki” value was 480 nM and 480 ± 700 nM.

Regarding `Nc1nc(N)c(NC(=O)Nc2ccc(C(=O)N[C@@H](Cc3ccc(O)cc3)C(=O)O)cc2)c(=O)[nH]1` [Compound 19, (S)-2-(4-(3-(2,4-Diamino-6-hydroxypyrimidin-5-yl)ureido)benzamido)-3-(4-hydroxyphenyl)propanoic Acid], in data set [4], the “FolD inhibition IC50” value was found to be 9300 ± 900 nM and the “FolD inhibition Ki” value is 7300 ± 700 nM.

“Trypanosoma brucei N5,N10-methylenetetrahydrofolate dehydrogenase/cyclohydrolase (FolD) (enzyme)”: in data set [7], the stoichiometry N (usually the number of molecules, sites or subunits per partner or assembly) turned out to be 2.
